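GI50 is the concentration that inhibits growth by half. TGI: concentration producing complete growth inhibition.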
Legend:
Assay in all cases: NCI tumour cell line growth inhibition, 384-well format
[1] = tested on: MDA-MB-468 breast
[2] = tested on: NCI-H23 lung
[3] = tested on: A498 renal
[4] = tested on: SW-620 colon
[5] = tested on: UACC-257 melanoma
[6] = tested on: UO-31 renal
[7] = tested on: BT-549 breast
[8] = tested on: NCI-H460 NSCLC
[9] = tested on: U251 glioblastoma
[10] = tested on: SF-539 CNS
[11] = tested on: HOP-62 NSCLC
[12] = tested on: SK-OV-3 ovarian
[13] = tested on: SF-268 CNS
[14] = tested on: OVCAR-4 ovarian
[15] = tested on: LOX IMVI melanoma
[16] = tested on: TK-10 renal
[17] = tested on: ACHN renal
[18] = tested on: HCC-2998 colon
[19] = tested on: T-47D breast
[20] = tested on: NCI-H322M lung
[21] = tested on: MDA-MB-435 melanoma
[22] = tested on: NCI-H226 lung
[23] = tested on: NCI-H522 lung
[24] = tested on: M14 melanoma
[25] = tested on: HL-60(TB) leukemia
[26] = tested on: SF-295 CNS
[27] = tested on: DU-145 prostate
[28] = tested on: A549 NSCLC
[29] = tested on: IGROV1 ovarian
[30] = tested on: SN12C renal
[31] = tested on: SNB-19 CNS
[32] = tested on: K-562 leukemia
[33] = tested on: SK-MEL-5 melanoma
[34] = tested on: 786-0 renal
[35] = tested on: CAKI-1 renal
[36] = tested on: MDA-MB-231 breast
[37] = tested on: RPMI-8226 leukemia
[38] = tested on: RXF 393 renal
[39] = tested on: HS 578T breast
[40] = tested on: MOLT-4 leukemia
[41] = tested on: COLO 205 colon
[42] = tested on: UACC-62 melanoma
[43] = tested on: HCT-15 colon
[44] = tested on: SNB-75 CNS
[45] = tested on: HCT-116 colon
[46] = tested on: OVCAR-3 ovarian
[47] = tested on: HT29 colon
[48] = tested on: EKVX NSCLC
[49] = tested on: MALME-3M melanoma
[50] = tested on: MCF7 breast
[51] = tested on: CCRF-CEM leukemia
[52] = tested on: NCI/ADR-RES ovarian
[53] = tested on: OVCAR-8 ovarian
[54] = tested on: HOP-92 NSCLC
[55] = tested on: PC-3 prostate
[56] = tested on: OVCAR-5 ovarian
[57] = tested on: SK-MEL-28 melanoma
[58] = tested on: KM12 colon
[59] = tested on: SK-MEL-2 melanoma

O=C(Oc1ccc([N+](=O)[O-])cc1)N1CCC(C(O)(c2ccc3c(c2)OCO3)c2ccc3c(c2)OCO3)CC1
GI50 [1]: 32.6 µM | TGI [1]: > 100 µM | GI50 [2]: > 100 µM | TGI [2]: > 100 µM | GI50 [3]: > 100 µM | TGI [3]: > 100 µM | GI50 [4]: > 100 µM | TGI [4]: > 100 µM | GI50 [5]: > 100 µM | TGI [5]: > 100 µM | GI50 [6]: > 100 µM | TGI [6]: > 100 µM | GI50 [7]: 53.1 µM | TGI [7]: > 100 µM | GI50 [8]: > 100 µM | TGI [8]: > 100 µM | GI50 [9]: > 100 µM | TGI [9]: > 100 µM | GI50 [10]: > 100 µM | TGI [10]: > 100 µM | GI50 [11]: > 100 µM | TGI [11]: > 100 µM | GI50 [12]: > 100 µM | TGI [12]: > 100 µM | GI50 [13]: 11.1 µM | TGI [13]: > 100 µM | GI50 [14]: > 100 µM | TGI [14]: > 100 µM | GI50 [15]: > 100 µM | TGI [15]: > 100 µM | GI50 [16]: > 100 µM | TGI [16]: > 100 µM | GI50 [17]: > 100 µM | TGI [17]: > 100 µM | GI50 [18]: 18.2 µM | TGI [18]: > 100 µM | GI50 [19]: 2.93 µM | TGI [19]: > 100 µM | GI50 [20]: > 100 µM | TGI [20]: > 100 µM | GI50 [21]: > 100 µM | TGI [21]: > 100 µM | GI50 [22]: > 100 µM | TGI [22]: > 100 µM | GI50 [23]: > 100 µM | TGI [23]: > 100 µM | GI50 [24]: > 100 µM | TGI [24]: > 100 µM | GI50 [25]: > 100 µM | TGI [25]: > 100 µM | GI50 [26]: > 100 µM | TGI [26]: > 100 µM | GI50 [27]: > 100 µM | TGI [27]: > 100 µM | GI50 [28]: > 100 µM | TGI [28]: > 100 µM | GI50 [29]: > 100 µM | TGI [29]: > 100 µM | GI50 [30]: > 100 µM | TGI [30]: > 100 µM | GI50 [31]: > 100 µM | TGI [31]: > 100 µM | GI50 [32]: > 100 µM | TGI [32]: > 100 µM | GI50 [33]: > 100 µM | TGI [33]: > 100 µM | GI50 [34]: > 100 µM | TGI [34]: > 100 µM | GI50 [35]: > 100 µM | TGI [35]: > 100 µM | GI50 [36]: > 100 µM | TGI [36]: > 100 µM | GI50 [37]: > 100 µM | TGI [37]: > 100 µM | GI50 [38]: 98.7 µM | TGI [38]: > 100 µM | GI50 [39]: 24.5 µM | TGI [39]: > 100 µM | GI50 [40]: > 100 µM | TGI [40]: > 100 µM | GI50 [41]: > 100 µM | TGI [41]: > 100 µM | GI50 [42]: > 100 µM | TGI [42]: > 100 µM | GI50 [43]: > 100 µM | TGI [43]: > 100 µM | GI50 [44]: 24.6 µM | TGI [44]: > 100 µM | GI50 [45]: > 100 µM | TGI [45]: > 100 µM | GI50 [46]: > 100 µM | TGI [46]: > 100 µM | GI50 [47]: > 100 µM | TGI [47]: > 100 µM | GI50 [48]: > 100 µM | TGI [48]: > 100 µM | GI50 [49]: > 100 µM | TGI [49]: > 100 µM | GI50 [50]: > 100 µM | TGI [50]: > 100 µM | GI50 [51]: > 100 µM | TGI [51]: > 100 µM | GI50 [52]: > 100 µM | TGI [52]: > 100 µM | GI50 [53]: > 100 µM | TGI [53]: > 100 µM | GI50 [54]: 44.5 µM | TGI [54]: > 100 µM | GI50 [55]: > 100 µM | TGI [55]: > 100 µM | GI50 [56]: > 100 µM | TGI [56]: > 100 µM | GI50 [57]: > 100 µM | TGI [57]: > 100 µM | GI50 [58]: > 100 µM | TGI [58]: > 100 µM

Nc1cc(C(F)F)c(-c2nc(N3[C@@H]4CC[C@H]3COC4)nc(N3[C@@H]4CC[C@H]3COC4)n2)cn1
GI50 [1]: 0.201 µM | TGI [1]: 0.98 µM | GI50 [2]: 2.18 µM | TGI [2]: > 100 µM | GI50 [3]: 0.0899 µM | TGI [3]: 3.63 µM | GI50 [4]: 1.51 µM | TGI [4]: > 100 µM | GI50 [5]: 1.5 µM | TGI [5]: > 100 µM | GI50 [6]: 0.216 µM | TGI [6]: 0.796 µM | GI50 [7]: 0.261 µM | TGI [7]: 2.64 µM | GI50 [8]: 0.105 µM | TGI [8]: > 100 µM | GI50 [9]: 0.769 µM | TGI [9]: > 100 µM | GI50 [10]: 0.451 µM | TGI [10]: > 100 µM | GI50 [11]: 0.497 µM | TGI [11]: 7.53 µM | GI50 [13]: 1.12 µM | TGI [13]: > 100 µM | GI50 [14]: 0.178 µM | TGI [14]: 2.21 µM | GI50 [15]: 0.464 µM | TGI [15]: > 100 µM | GI50 [16]: 0.384 µM | TGI [16]: 8.8 µM | GI50 [17]: 0.426 µM | TGI [17]: > 100 µM | GI50 [18]: 0.407 µM | TGI [18]: > 100 µM | GI50 [19]: 0.104 µM | TGI [19]: 0.509 µM | GI50 [20]: 0.398 µM | TGI [20]: > 100 µM | GI50 [21]: 0.499 µM | TGI [21]: 32.2 µM | GI50 [22]: 0.196 µM | TGI [22]: 2.84 µM | GI50 [23]: 0.183 µM | TGI [23]: 7.62 µM | GI50 [24]: 0.358 µM | TGI [24]: > 100 µM | GI50 [25]: 2.53 µM | TGI [25]: > 100 µM | GI50 [26]: 0.215 µM | TGI [26]: 1.93 µM | GI50 [27]: 0.525 µM | TGI [27]: > 100 µM | GI50 [28]: 0.338 µM | TGI [28]: > 100 µM | GI50 [29]: 0.188 µM | TGI [29]: 0.98 µM | GI50 [30]: 0.347 µM | TGI [30]: > 100 µM | GI50 [31]: 3.03 µM | TGI [31]: > 100 µM | GI50 [32]: 0.523 µM | TGI [32]: > 100 µM | GI50 [33]: 0.251 µM | TGI [33]: 1.53 µM | GI50 [34]: 0.639 µM | TGI [34]: > 100 µM | GI50 [35]: 0.311 µM | TGI [35]: 3.67 µM | GI50 [36]: 0.338 µM | TGI [36]: > 100 µM | GI50 [37]: 0.0287 µM | TGI [37]: 0.198 µM | GI50 [38]: 0.198 µM | TGI [38]: 1.58 µM | GI50 [39]: 0.138 µM | TGI [39]: 0.687 µM | GI50 [59]: 2.12 µM | TGI [59]: 9.78 µM | GI50 [40]: 0.158 µM | TGI [40]: 9.69 µM | GI50 [41]: 0.368 µM | TGI [41]: > 100 µM | GI50 [42]: 0.389 µM | TGI [42]: 5.93 µM | GI50 [43]: 0.419 µM | TGI [43]: > 100 µM | GI50 [44]: 0.17 µM | TGI [44]: 0.873 µM | GI50 [45]: 1.44 µM | TGI [45]: > 100 µM | GI50 [46]: 0.349 µM | TGI [46]: > 100 µM | GI50 [47]: 4.21 µM | TGI [47]: > 100 µM | GI50 [48]: 0.345 µM | TGI [48]: 12 µM | GI50 [50]: 0.143 µM | TGI [50]: > 100 µM | GI50 [51]: 0.301 µM | TGI [51]: 38 µM | GI50 [52]: 0.921 µM | TGI [52]: > 100 µM | GI50 [53]: 0.545 µM | TGI [53]: > 100 µM | GI50 [54]: 0.56 µM | TGI [54]: > 100 µM | GI50 [55]: 0.253 µM | TGI [55]: > 100 µM | GI50 [56]: 0.718 µM | TGI [56]: > 100 µM | GI50 [57]: 0.446 µM | TGI [57]: > 100 µM | GI50 [58]: 0.32 µM | TGI [58]: > 100 µM

Reference: PubChem BioAssay (NCI)
